biological target: A/H3N2 influenza NA (Influenza A virus (H3N2), UniProt Q91IQ5); assay type: biochemical, A/H3N2 influenza virus (clinical isolate from Hong Kong); details: 10 µM

| Structure (SMILES) | Inhibitory rate against A/H3N2 influenza NA [%] |
| --- | --- |
| CCC(CC)O[C@@H]1C=C(C(=O)O)C[C@H](NC(=O)c2cc(C3CC3)nn2-c2cccc(C)c2)[C@H]1NC(C)=O [Compound 26c, (3R,4R,5S)-4-acetamido-5-(3-cyclopropyl-1-(m-tolyl)-1H-pyrazole-5-carboxamido)-3-(pentan-3-yloxy) cyclohex-1-ene-1-carboxylic acid] | 31.53 |
| CCC(CC)O[C@@H]1C=C(C(=O)O)C[C@H](NC(=O)c2cc(C3CC3)nn2-c2ccc(Br)cc2)[C@H]1NC(C)=O [Compound 26d, (3R,4R,5S)-4-acetamido-5-(1-(4-bromophenyl)-3-cyclopropyl-1H-pyrazole-5-carboxamido)-3-(pentan-3-yloxy) cyclohex-1-ene-1-carboxylic acid] | 37.17 |
| CCC(CC)O[C@@H]1C=C(C(=O)O)C[C@H](N)[C@H]1NC(C)=O [OC, oseltamivir carboxylate, reference compound] | 97.46 |

Reference: article PMC8073777, “Design, Synthesis, Biological Evaluation and In Silico Studies of Pyrazole-Based NH2-Acyl Oseltamivir Analogues as Potent Neuraminidase Inhibitors” (Pharmaceuticals, 2021)
